Reference: patent US20030203404A1, “Bioluminescence resonance energy transfer( bret) system with broad spectral resolution between donor and acceptor emission wavelengths and its use” (priority 1999, published 2003)
Where two headings read alike, the source gives them in different places.

Assays:
[1] = Coelenterazine 400a stock solution stability (luminescence with CHO cells expressing Rluc, BRETCount); assay type: physicochemical
Protocol: Coelenterazine stability: Three different stock solutions of coelenterazine 400a (dissolved in anhydrous ethanol), prepared at different times, were tested using the BRETCount. CHO cells were transiently transfected with pcDNA3.1-Rluc only. Forty-eight hours later, 50 000 cells in complete BRET buffer were distributed in wells (96-well white Optiplate). Coelenterazine 400a from the various stocks were then added to start the bioluminescent reaction. […] A reduction of 22% is observed for the older stock (made Feb. 19, 1999) compared to a stock freshly made (Aug. 6, 1999). […].
FIG. 9 represents the same bioluminescent reactions as in FIG. 8 but at t=5 min after addition of the coelenterazines. In this case no significant difference was observed between the various coelenterazine stocks.
Coel400a stored for a longer period of time (6 months), does show a loss of potential but it remains acceptable and workable for the BRET system.

[2] = system: HeLa cells transfected with the GFP1:Caspase-3:Rluc sensor; assay: BRET apoptosis sensor assay; assay type: cell-based; conditions: staurosporine 1 μM, 5 hours
Protocol: PGFP1:caspase-3:Rluc DNAs and the original plasmid pGFP1::Rluc (without the caspase-3 site) were transfected into HeLa cell using LipofectAMINE (BRL/Gibco-Life technologies) in 100 mm dishes and 8 μg of plasmid DNA as described in the manufacturer's protocol. Twenty-four hours post-transfection transfected cells were harvested and distributed into 96-well microtiterplate (white Optiplate from Packard) at a density of 30 000 cells per well. […] Cells were incubated for 5 hours at 37° C. After this period, 50 μl of BRET buffer (PBS Ca^2+/Mg^2++glucose without aprotinin) and 50 μl of DeepBlueC (20 μM) were added to start the bioluminescence reaction. Total assay volume was 200 μl. Light emissions were detected using the BRETCount (read length of 1 sec. for each filter, SPC mode, temperature 25° C.).

V2-R = V2-R (Homo sapiens, UniProt P30518); conditions: AVP 50 nM, 20 minutes
Protocol: BRET assays: HEK293 cell line were transiently co-transfected using the donor and acceptor fusion construct DNAs and LipofectAMINE 2000 (Life Technologies) in 100 mm dishes as described in the manufacturer's protocol. For the transfections, a DNA ratio of 4 μg:46 μg (donor fusion construct: acceptor fusion construct) was used. The donor fusion constructs were the V2-R:Rluc (h) fusion constructs and the acceptor fusion construct was either the pcDNA3.1hyg/GFP1:β-arrestin2 or the pcDNA3.1hyg/β-arrestin2:GFP1. […] Fifty thousand transfected cells per well were added to white 96-well plates (Optiplate, Packard Instrument Company). […] Cells were then incubated for 20 minutes at room temperature in a total volume of 37.5 μl. After the incubation period, 12.5 μl of DeepBlueC at 20 μM (also called Coel400a) was added in each well (final concentration of 5 μM). Final assay volume was 50 μl. Donor and acceptor light outputs were quantified with the Fusion microtiterplate analyzer (Packard Instrument Company) using the following instrument setting:
Read length: 1 sec per well per filter.
Results represent the mean+/−SEM of quadruplicate wells. […] In all cases, background levels (wells with only DBC in PBS+) were subtracted.

V2 receptor = V2 receptor (Homo sapiens, UniProt P30518); conditions: saturating dose, V2-Rluc + β-arrestin2-GFP, FIG. 22
Protocol: The Rluc (BDP) was fused to the C-terminus of the GPCR and the GFP (FAM) was fused to the C-terminus of β-arrestin. Therefore, shortly after ligand binding (5-30 minutes) the BRET ratio should increase due to binding of β-arrestin to the GPCR, which brings the GFP in proximity to Rluc.
HEK293 cell line were transiently transfected using the DNA constructs and LipofectAMINE™ 2000 (BRL/Gibco) in 100 mm dishes as described in the manufacturer's protocol. […] Bioluminescent reactions were analysed using the BRETCount with appropriate filters.
Transfected cells were added (50 000 cells (in BRET buffer) per well) to the wells in white 96-well plates (Optiplate, Packard Instrument). […] In the other half, BRET buffer, alone, was added. Cells were then incubated for 10-20 minutes at room temperature before adding the coel400a. The analysis was performed at 25° C., integration time 2 sec per wavelength in luminescence mode. The filters used were: for Rluc emission 410DF80 (from Omega); for GFP D515/50M (from Chroma). Coel400a, at a working concentration of 40 μM (final 5 μM), was added to each well to start the bioluminescent reaction. The final reaction volume was 50 μl. Assays were done in quadruplicate.
For all fusion constructs, a 6 amino acid linker was inserted, between the Rluc or GFP and the receptor (β2, β3 or V2) or β-arrestin2. […]

For `O=c1c(Cc2ccccc2)nc2c(Cc3ccccc3)[nH]c(-c3ccccc3)cn1-2` [Coelenterazine 400a, phenylcoelenterazine], the “reduction of luminescent signal immediately after addition of the substrate” value ([1]; stock in anhydrous ethanol made Feb. 19, 1999 compared to stock freshly made (Aug. 6, 1999)) was 22% and the “luminescence reduction immediately after addition of the substrate” value ([1]; stock in anhydrous ethanol made Jul. 22, 1999 compared to stock freshly made (Aug. 6, 1999)) was “did not demonstrate significant luminescence reduction”.
In the case of `CN[C@@H]1C[C@H]2O[C@@](C)([C@@H]1OC)n1c3ccccc3c3c4c(c5c6ccccc6n2c5c31)C(=O)NC4` [staurosporine], the “BRET ratio change (decrease)” value ([2]; cells transfected with pGFP1:caspase-3:Rluc, time zero) was 0.72 unit and the “change in BRET ratio” value ([2]; cells transfected with pGFP::Rluc (without the caspase-3 site)) was “No change”.
For Arg^8-vasopressin [AVP], the “BRET signal in presence of AVP” value (V2-R; V2-R:Rluc + GFP1:β-arrestin2, 10 min after DeepBlueC) was 0.129, the “BRET signal in presence of AVP” value (V2-R; V2-R:Rluc + β-arrestin2:GFP1, 10 min after DeepBlueC) was 0.087 and the “BRET ratio in the presence of the agonist” value (V2 receptor) was “increased”.
